Reference: US4096112A, “2-Phenyl-indole derivative stabilizers for PVC resins” (Labaz, priority 1976, dated 1978)

Key:
mice [1] = test: Acute toxicity (LD50), oral route, mice; type: in vivo; settings: LD50 test
Experimental: (§1) The acute toxicity (LD50) of the stabilizers listed below was carried out, by determining the dose of substance which provoked the death of 50% of the treated animals.
(§2) A gummy suspension of the substance under study was administered by oral route to groups of at least ten mice and the following results were observed: […]

[2] = Sublimation of the stabilizers; type: physicochemical; settings: 120° C, 15 Torr, 150 minutes; for Percentage of sublimated substance: cold wall 13° C, 150 mg
Description: The tendency to sublimate of 2-(3'-methoxy-4'-hydroxy-phenyl)-indole (Stabilizer 2) was compared to that of 2-phenyl-indole.
A sample of the substance to be tested was introduced into a test tube and heated under reduced pressure. The fraction of sublimated substance was recovered on a mobile cold wall.
After a certain period of time, the sublimated substance was weighed and the result expressed as a percentage of the weight of the starting material.
The results obtained can only be of relative value enabling a comparison to be made between two products tested under the same conditions.
Operating conditions (chosen at random)

[3] = Thermostability of the stabilizers: differential thermoanalysis; type: physicochemical; settings: 2° C/minute, 2 mg
Experimental: (§3) The thermostability of Stabilizer 2 and that of 2-phenyl-indole were studied by differential thermoanalysis and by thermogravimetric analysis.
Differential thermoanalysis diagrams were drawn up by studying 2 mg samples of material placed in a non-airtight container, the rate of temperature increase being 2° C/minute and sensitivity 4 mcal/sec.
The diagrams were made out for 2-phenyl-indole (i) and Compound 2 (ii) and enabled the following conclusions to be drawn: […]

[4] = Thermostability of the stabilizers: thermogravimetric analysis; type: physicochemical
Experimental: as §3
This analysis necessitated two series of trials carried out under air and under inert gas (argon) in order to eliminate any possible effect of oxygen. The results obtained were identical.
The temperature increase rate was 80° /hour.
Thermograms were drawn up under air for both 2-phenyl-indole (i) and for Stabilizer 2 (ii) and enabled the following conclusions to be drawn: […]

[5] = Acute toxicity (LD50), oral route, mice; type: in vivo; settings: mouse, in vivo, gummy suspension
Experimental: as §1, §2

[6] = Static thermostability of the stabilized resin, GARDNER Scale comparator; settings: 210° C
Experimental: (§4) These studies were performed with five different formulae of vinyl resins (hereinafter referred to as Compounds).
(§5) The different Compounds were mixed and calendered in a mixer of which the cylinders were heated to 160° C. The rigid sheets so obtained were then heated in an oven to a temperature between 180° C and 215° C, until incipient carbonization.
(§6) A stove with rotating drums, ventilated and equipped with a thermostat was used for this operation. In the trials described hereunder, the behaviour of the sheets containing one of the stabilizers to be tested was compared to that of sheets of the same formulae but containing 2-phenylindole as stabilizer.
(1) The coloration of the sheets, of which samples were removed from the stove at fixed intervals, was compared to a standard scale of coloration, known as the GARDNER Scale and expressed in terms of the reference figures of the GARDNER Scale.
Comparisons were made with a GARDNER Scale comparator which contains 18 filters of coloured glass and which offers the possibility of observing by transparency and in a limited field of view both the sheet and the reference filters.

[7] = Static thermostability of the stabilized resin, simplified method (GARDNER sub-scale in polyvinyl chloride sheets)
Experimental: as §4, §5, §6
(2) It is also possible to use a simplified method which is more rapid and with which valid results are also obtained: A reference scale is drawn up with sheets of thermally treated polyvinyl chloride, of which the colorations have been definitely determined in GARDNER degrees as above.
A GARDNER sub-scale is thus obtained in polyvinyl chloride sheets which can be directly compared to the sheets to be tested without using the comparator.

[8] = type: physicochemical; settings: water; for Extractibility compared with 2-phenyl-indole: aqueous ethanol and heptane
Experimental: The stabilizers according to the invention may be used to stabilize polymers which are intended for the manufacture of packaging and containers for food and drink and it was therefore necessary, in spite of their low toxicity, to determine their extractibility by solvents simulating food and drink. This study was carried out in accordance with the requirements of the Food and Drug Administration (U.S.A). The extractions were performed in semi-rigid bottles, prepared with Compounds Nos. 609 and 676, and with the following solvents: water, an aqueous solution of acetic acid (3%), ethanol-water 50/50, heptane. The ratio of the volume of solvent to the surface of plastic material exposed to extraction was about 1 to 100 ml of solvent, taking into account the geometric characteristics of the bottles. Temperature: 49° C Heating: A thermostated oven for the non-inflammable solvents (water and acetic acid) A thermostated water-bath for the inflammable solvents (alcohol and heptane) Duration of extraction: This is indicated under each result. They are, in each case, intentionally longer than those which would have given stable maximum values. The quantity of stabilizer extracted was determined by colorimetric assay using p-dimethylaminobenzaldehyde, in accordance with the method described in Analytical Chemistry 36, 425-26 (1964). A blank trial was carried out with a Compound of the same formula as Compounds Nos. 609 and 676, but without any stabilizer. A purely negative result was obtained. The amounts of stabilizer assayed are expressed in μg per liter of extraction solvent or, which is the same per 1000 cm^2 of surface submitted to extraction.

mice [9] = test: Maximal dose which does not provoke any death (LD0), oral route, mice; type: in vivo; settings: for Toxic symptoms: LD0 test
Experimental: as §2

Compound: c1ccc(-c2cc3ccccc3[nH]2)cc1 [2-phenyl-indole]
- Toxic symptoms (mice [1]): none
- Percentage of sublimated substance [2]: 26.9%
- Loss of water [3]: no loss of water at 100 °C
- Residue / decomposition ([4]; under air, 210° C): a yellowish residue was, in fact, obtained at 210 °C which constitutes proof of decomposition

Compound: COc1cc(-c2cc3ccccc3[nH]2)ccc1O [Stabilizer 2, 2-(3'-methoxy-4'-hydroxy-phenyl)-indole]
- LD50 [5]: > 2000 mg/kg
- Toxic symptoms (mice [1]): none
- Static thermostability compared with 2-phenyl-indole ([6]; Compound A): superior to 2-phenylindole
- Static thermostability compared with 2-phenyl-indole ([6]; Compound B): superiority of Stabilizer 2 over 2-phenyl-indole is evident after 21 minutes
- Static thermostability compared with 2-phenyl-indole ([7]; Compound C, 210° C): superior as a stabilizer to 2-phenyl-indole
- Static thermostability compared with 2-phenyl-indole ([7]; Compound D, 185° C, 0, 10 and 20 minutes): markedly superior to 2-phenyl-indole at 0, 10 and 20 minutes
- Sublimation compared with 2-phenyl-indole (ratio) [2]: twenty times less than that of 2-phenyl-indole
- Percentage of sublimated substance [2]: 1.2%
- Loss of water [3]: no loss of water
- Thermostability compared with 2-phenyl-indole ([4]; thermogravimetric analysis and differential thermoanalysis): greater thermostability than 2-phenyl-indole
- Extractibility, times less than 2-phenyl-indole [8]: at least 10 times less
- Extractibility compared with 2-phenyl-indole [8]: markedly less extractible than 2-phenyl-indole

Compound: COc1cc(OC)cc(-c2cc3ccccc3[nH]2)c1 [Stabilizer 3, 2-(3',5'-dimethyoxy-phenyl)-indole]
- LD50 [5]: > 2000 mg/kg
- Toxic symptoms (mice [1]): none
- Static thermostability compared with 2-phenyl-indole ([7]; Compound A, 210° C): markedly superior to 2-phenyl-indole

Compound: COc1ccc(-c2cc3ccccc3[nH]2)cc1O [Stabilizer 13, 2-(3'-hydroxy-4'-methoxy-phenyl)-indole]
- Static thermostability compared with 2-phenyl-indole ([7]; Compound A, 210° C): clearly superior to 2-phenyl-indole

Compound: CCCCCCCCCCCCc1cc(-c2cc3ccccc3[nH]2)ccc1OC [Stabilizer 14, 2-(3'-dodecyl-4'-methoxy-phenyl)-indole]
- LD50 [5]: > 3000 mg/kg
- Toxic symptoms (mice [1]): none
- Extractibility compared with 2-phenyl-indole [8]: markedly less extractible than 2-phenyl-indole

Compound: COc1ccc(-c2cc3ccccc3[nH]2)cc1C(C)C [Stabilizer 15, 2-(3'-isopropyl-4'-methoxy-phenyl)-indole]
- LD50 [5]: > 3000 mg/kg
- Toxic symptoms (mice [1]): none

Compound: COc1c(C)cc(-c2cc3ccccc3[nH]2)cc1C [Stabilizer 17, 2-(3',5'-dimethyl-4'-methoxy-phenyl)-indole]
- LD0 (maximal dose which does not provoke any death) (mice [9]): > 3000 mg/kg
- Toxic symptoms (mice [9]): none

Compound: CCCCCCCCCCCCc1cc(-c2cc3ccccc3[nH]2)ccc1O [Stabilizer 19, 2-(3'-dodecyl-4'-hydroxy-phenyl)-indole]
- Extractibility compared with 2-phenyl-indole [8]: markedly less extractible than 2-phenyl-indole

Compound: CCOc1ccc(-c2cc3ccccc3[nH]2)cc1OC [Stabilizer 23, 2-(3'-methoxy-4'-ethoxy-phenyl)-indole]
- LD0 (maximal dose which does not provoke any death) (mice [9]): > 500 mg/kg
- Toxic symptoms (mice [9]): none

Compound: CCCCCCCCCCCCOc1ccc(-c2cc3ccccc3[nH]2)cc1OC [Stabilizer 24, 2-(3'-methoxy-4'-dodecyloxy-phenyl)-indole]
- Extractibility compared with 2-phenyl-indole [8]: markedly less extractible than 2-phenyl-indole

Compound: CCCCOc1ccc(-c2cc3ccccc3[nH]2)cc1OC [Stabilizer 25, 2-(3'-methoxy-4'-butyloxy-phenyl)-indole]
- LD0 (maximal dose which does not provoke any death) (mice [9]): > 3000 mg/kg
- Toxic symptoms (mice [9]): none

Compound: COc1cc(-c2cc3ccccc3[nH]2)ccc1OC(C)C [Stabilizer 27, 2-(3'-methoxy-4'-isopropyloxy-phenyl)-indole]
- LD0 (maximal dose which does not provoke any death) (mice [9]): > 3000 mg/kg
- Toxic symptoms (mice [9]): none

Compound: COc1ccc(-c2cc3ccccc3[nH]2)cc1OCc1ccccc1 [Stabilizer 29, 2-(3'-benzyloxy-4'-methoxy-phenyl)indole]
- LD0 (maximal dose which does not provoke any death) (mice [9]): > 500 mg/kg
- Toxic symptoms (mice [9]): none

Compound: CCCCCCCCCCCCOc1ccc(-c2cc3ccccc3[nH]2)cc1C [Stabilizer 30, 2-(3'-methyl-4'-dodecyloxy-phenyl)-indole]
- Extractibility compared with 2-phenyl-indole [8]: markedly less extractible than 2-phenyl-indole

Compound: COc1cc(-c2cc3ccccc3[nH]2)ccc1OCc1ccccc1 [Stabilizer 31, 2-(3'-methoxy-4'-benzyloxy-phenyl)-indole]
- LD0 (maximal dose which does not provoke any death) (mice [9]): > 500 mg/kg
- Toxic symptoms (mice [9]): none

Compound: c1ccc2[nH]c(-c3ccc4c(c3)OCO4)cc2c1 [Stabilizer 33, 2-(3',4'-methylenedioxy-phenyl)-indole]
- LD0 (maximal dose which does not provoke any death) (mice [9]): > 3000 mg/kg
- Toxic symptoms (mice [9]): none

Compound: c1ccc2[nH]c(-c3ccc4c(c3)OCCO4)cc2c1 [Stabilizer 34, 2-(3',4'-ethylenedioxy-phenyl)-indole]
- LD0 (maximal dose which does not provoke any death) (mice [9]): > 3000 mg/kg
- Toxic symptoms (mice [9]): none
